Experiments:
[1] = Clearance in human liver microsomes at 0.5 uM preincubated for 5 mins followed by NADPH addition measured after 30 mins by MSMS analysis; assay type: ADME, microsome; details: read-out: CLH
[2] = molecular target: cAMP and cAMP-inhibited cGMP 3',5'-cyclic phosphodiesterase 10A (Homo sapiens, UniProt Q9Y233); test: Inhibition of recombinant PDE10A (unknown origin) using cAMP/cGMP as substrate incubated for 60 mins by HTRF assay
[3] = Clearance in rat liver microsomes at 0.5 uM preincubated for 5 mins followed by NADPH addition measured after 30 mins by MSMS analysis; assay type: ADME, microsome; details: read-out: CLH

Chain of cAMP and cAMP-inhibited cGMP 3',5'-cyclic phosphodiesterase 10A (Q9Y233 whole entry): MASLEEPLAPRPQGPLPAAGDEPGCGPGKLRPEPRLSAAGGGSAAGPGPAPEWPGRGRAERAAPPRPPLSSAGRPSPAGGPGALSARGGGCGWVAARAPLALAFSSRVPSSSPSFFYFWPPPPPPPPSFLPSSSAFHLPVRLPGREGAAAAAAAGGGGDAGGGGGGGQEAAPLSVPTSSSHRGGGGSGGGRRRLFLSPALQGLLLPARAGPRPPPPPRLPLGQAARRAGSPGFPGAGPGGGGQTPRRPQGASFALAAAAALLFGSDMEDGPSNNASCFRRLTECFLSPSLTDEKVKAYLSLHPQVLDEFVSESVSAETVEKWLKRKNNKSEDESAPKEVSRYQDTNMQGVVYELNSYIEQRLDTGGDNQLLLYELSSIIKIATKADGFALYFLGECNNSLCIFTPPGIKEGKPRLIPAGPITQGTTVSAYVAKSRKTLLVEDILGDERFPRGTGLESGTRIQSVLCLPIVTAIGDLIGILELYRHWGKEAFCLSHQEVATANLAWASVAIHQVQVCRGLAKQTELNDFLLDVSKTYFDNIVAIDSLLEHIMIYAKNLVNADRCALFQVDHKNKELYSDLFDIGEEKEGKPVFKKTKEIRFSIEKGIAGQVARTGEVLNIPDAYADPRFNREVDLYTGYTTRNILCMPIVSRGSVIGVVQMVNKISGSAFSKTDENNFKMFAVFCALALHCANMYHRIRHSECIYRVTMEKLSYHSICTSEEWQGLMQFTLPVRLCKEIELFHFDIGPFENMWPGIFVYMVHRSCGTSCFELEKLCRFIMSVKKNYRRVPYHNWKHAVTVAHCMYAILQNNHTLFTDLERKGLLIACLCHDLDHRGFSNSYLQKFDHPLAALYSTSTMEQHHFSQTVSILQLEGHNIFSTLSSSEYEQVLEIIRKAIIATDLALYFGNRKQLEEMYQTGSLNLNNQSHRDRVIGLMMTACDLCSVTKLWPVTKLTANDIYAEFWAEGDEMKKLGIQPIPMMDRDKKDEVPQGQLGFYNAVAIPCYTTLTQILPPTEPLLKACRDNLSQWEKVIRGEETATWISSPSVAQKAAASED

For `Cn1cc(-c2ccncc2)c(-c2ccc(C#Cc3ccccn3)cc2)n1`, the microsomal CLint at 0.5 µM [1] was < 100 µL/min/mg, the IC50 [2] was < 100 nM and the microsomal CLint at 0.5 µM [3] was < 100 µL/min/mg.

In the case of `Cc1cccc(C#Cc2ccc(-c3nn(C)cc3-c3cn[nH]c3)cc2)n1`, the microsomal CLint at 0.5 µM [1] is reported as < 100 µL/min/mg, the IC50 [2] is reported as 200 to 500 nM and the microsomal CLint at 0.5 µM [3] is reported as < 100 µL/min/mg.

With `Cn1cc(-c2ccncc2)c(-c2ccc(C#Cc3nccn3C)cc2)n1` the microsomal CLint at 0.5 µM [1] was < 100 µL/min/mg, the IC50 [2] was < 100 nM and the microsomal CLint at 0.5 µM [3] was < 100 µL/min/mg.

With `Cn1cc(-c2ccncc2)c(-c2ccc(C#Cc3ccc4ccccc4n3)cc2)n1` the microsomal CLint at 0.5 µM [1] was < 100 µL/min/mg, the IC50 [2] was < 100 nM and the microsomal CLint at 0.5 µM [3] was < 100 µL/min/mg.

In the case of `COc1cc(-c2nn(C)cc2-c2ccncc2)ccc1C#Cc1cccc(C)n1`, the microsomal CLint at 0.5 µM [1] is reported as < 100 µL/min/mg, the IC50 [2] is reported as < 100 nM and the microsomal CLint at 0.5 µM [3] is reported as 100 to 200 µL/min/mg.

For `Cn1cc(-c2ccncc2)c(-c2ccc(C#Cc3nccs3)cc2)n1`, the microsomal CLint at 0.5 µM [1] was < 100 µL/min/mg, the IC50 [2] was 100 to 200 nM and the microsomal CLint at 0.5 µM [3] was < 100 µL/min/mg.
